Consider 16 compounds from US12344610B2, “APOL1 inhibitors and methods of use” (Maze Therapeutics, Inc., priority 2022, dated 2025).

The experiment concerns the target T1, APOL1 G2 (Homo sapiens, UniProt O14791, DEL388-389).
T1 construct: expressed in transfected cells; host or cells: HEK293 T-REx clonal line stably expressing GCaMP6f (HEK T-REx/GCaMP6f/APOL1 G2 K6.3), doxycycline induced
T1 sequence (O14791 with tags, fused parts or gaps DEL388-389): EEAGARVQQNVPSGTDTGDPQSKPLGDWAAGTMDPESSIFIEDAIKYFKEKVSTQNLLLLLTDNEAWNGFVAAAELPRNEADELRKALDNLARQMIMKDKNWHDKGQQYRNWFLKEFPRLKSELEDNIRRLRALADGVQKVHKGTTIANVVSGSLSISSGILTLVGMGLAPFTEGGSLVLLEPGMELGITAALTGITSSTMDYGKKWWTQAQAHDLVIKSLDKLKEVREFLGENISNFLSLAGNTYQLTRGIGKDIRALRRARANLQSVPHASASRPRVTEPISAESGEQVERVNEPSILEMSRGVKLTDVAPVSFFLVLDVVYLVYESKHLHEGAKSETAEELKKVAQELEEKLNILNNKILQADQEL
Nature of the experiment: APOL1-mediated calcium transport (calcium influx) assay, HEK T-REx/GCaMP6f/APOL1 G2 K6.3 cells, FLIPR TETRA. Type of experiment: cell-based. To be noted: prevention of calcium influx; geometric mean of at least 2 assay runs; † = average of a technical replicate from a single assay run. An outline of the steps:
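A HEK293 T-REx clone stably expressing GCaMP6f had APOL1 G2 induced with doxycycline (20 ng/mL solution added) for 6 h. Cells were then washed into Ca2+-free Tyrode's buffer (pH 7.4) and preincubated with compounds (duplicate 8-point) for 10 min at room temperature. Ca2+ injection to 5 mM final produced FLIPR GCaMP fluorescence, giving AC50 for influx inhibition (geometric mean, ≥2 runs).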

On to `Cn1c(=O)[nH]c2cc(OCCN3CCC4(CC3)C(=O)Nc3ccc(Cl)cc34)ccc21` [Compound 88, 5-chloro-1′-{2-[(1-methyl-2-oxo-2,3-dihydro-1H-1,3-benzodiazol-5-yl)oxy]ethyl}-1,2-dihydrospiro[indole-3,4′-piperidin]-2-one], for which the AC50 was determined as 698 nM.

As for `CS(=O)(=O)C1(c2c(F)cc(OCCN3CCC4(CC3)C(=O)Nc3ccc(C#N)cc34)cc2F)COC1` [Compound 84, 1′-{2-[3,5-difluoro-4-(3-methanesulfonyloxetan-3-yl)phenoxy]ethyl}-2-oxo-1,2-dihydrospiro[indole-3,4′-piperidine]-5-carbonitrile], the AC50 worked out at 1450 nM.

As to `CC(C)N1C(=O)CCc2cc(OCCN3CCC4(CC3)C(=O)Nc3ccc(C#N)cc34)ccc21` [Compound 96, 2-oxo-1′-(2-{[2-oxo-1-(propan-2-yl)-1,2,3,4-tetrahydroquinolin-6-yl]oxy}ethyl)-1,2-dihydrospiro[indole-3,4′-piperidine]-5-carbonitrile], the half-maximal activity concentration (AC50) is 552 nM.

As to `O=C1Nc2ccc(Cl)cc2C12CCN(CCOc1ccc3c(cnn3[C@H]3C[C@@H](O)C3)c1)CC2` [Compound 85, 5-chloro-1′-[2-({1-[(cis)-3-hydroxycyclobutyl]-1H-indazol-5-yl}oxy)ethyl]-1,2-dihydrospiro[indole-3,4′-piperidin]-2-one], the AC50 is 564 nM.

For the compound `O=C1Nc2ccc(Cl)cc2C12CCN(CCOc1ccc3[nH]ncc3c1)CC2` [Compound 87, 5-chloro-1′-[2-(2H-indazol-5-yloxy)ethyl]-1,2-dihydrospiro[indole-3,4′-piperidin]-2-one], the AC50 was 375 nM.

In the case of `O=C1CCc2cc(OCCN3CCC4(CC3)C(=O)Nc3ccc(Cl)cc34)ccc2N1` [Compound 82, 5-chloro-1′-{2-[(2-oxo-1,2,3,4-tetrahydroquinolin-6-yl)oxy]ethyl}-1,2-dihydrospiro[indole-3,4′-piperidin]-2-one], the AC50 amounted to 1050 nM.

With `CS(=O)(=O)N(CCO)c1ccc(OCCN2CCC3(CC2)C(=O)Nc2ccc(Cl)cc23)cc1` [Compound 98, N-[4-(2-{5-chloro-2-oxo-1,2-dihydrospiro[indole-3,4′-piperidin]-1′-yl}ethoxy)phenyl]-N-(2-hydroxyethyl)methanesulfonamide], the AC50 amounted to 600 nM.

Regarding `O=C1Nc2ccc(Cl)cc2C12CCN(CCOc1ccc3c(cnn3[C@H]3C[C@H](O)C3)c1)CC2` [Compound 86, 5-chloro-1′-[2-({1-[(trans)-3-hydroxycyclobutyl]-1H-indazol-5-yl}oxy)ethyl]-1,2-dihydrospiro[indole-3,4′-piperidin]-2-one], the AC50 came to 539 nM.

In the case of `CS(=O)(=O)N1CCc2cc(OCCN3CCC4(CC3)C(=O)Nc3ccc(Cl)cc34)ccc2C1` [Compound 94, 5-chloro-1′-{2-[(2-methanesulfonyl-1,2,3,4-tetrahydroisoquinolin-6-yl)oxy]ethyl}-1,2-dihydrospiro[indole-3,4′-piperidin]-2-one], the AC50 is 794 nM.

With `CC1(S(=O)(=O)c2ccc(OCCN3CCC4(CC3)C(=O)Nc3ccc(C#N)cc34)cc2)COC1` [Compound 93, 1′-(2-{4-[(3-methyloxetan-3-yl)sulfonyl]phenoxy}ethyl)-2-oxo-1,2-dihydrospiro[indole-3,4′-piperidine]-5-carbonitrile], the AC50 was determined as 951 nM.

Take `CS(=O)(=O)c1c(F)cc(OCCN2CCC3(CC2)C(=O)Nc2ccc(Cl)cc23)cc1F` [Compound 89, 5-chloro-1′-[2-(3,5-difluoro-4-methanesulfonylphenoxy)ethyl]-1,2-dihydrospiro[indole-3,4′-piperidin]-2-one]: the AC50 came to 463 nM.

In the case of `COC(=O)C1(S(=O)(=O)c2ccc(OCCN3CCC4(CC3)C(=O)Nc3ccc(Cl)cc34)cc2)CC1` [Compound 91, methyl 1-[4-(2-{5-chloro-2-oxo-1,2-dihydrospiro[indole-3,4′-piperidin]-1′-yl}ethoxy)benzenesulfonyl]cyclopropane-1-carboxylate], the AC50 came out at 739 nM.

As for `CC1(S(=O)(=O)c2ccc(OCCN3CCC4(CC3)C(=O)Nc3ccc(Cl)cc34)cc2)COC1` [Compound 92, 5-chloro-1′-(2-{4-[(3-methyloxetan-3-yl)sulfonyl]phenoxy}ethyl)-1,2-dihydrospiro[indole-3,4′-piperidin]-2-one], the AC50 worked out at 761 nM.

As to `CS(=O)(=O)c1c(F)cc(OCCN2CCC3(CC2)C(=O)Nc2ccc(C#N)cc23)cc1F` [Compound 90, 1′-[2-(3,5-difluoro-4-methanesulfonylphenoxy)ethyl]-2-oxo-1,2-dihydrospiro[indole-3,4′-piperidine]-5-carbonitrile], the AC50 is 973 nM.

On to `CN1C(=O)CCc2cc(OCCN3CCC4(CC3)C(=O)Nc3ccc(C#N)cc34)ccc21` [Compound 95, 1′-{2-[(1-methyl-2-oxo-1,2,3,4-tetrahydroquinolin-6-yl)oxy]ethyl}-2-oxo-1,2-dihydrospiro[indole-3,4′-piperidine]-5-carbonitrile], for which the AC50 was found to be 655 nM.

Turning to `CC(C)N1C(=O)CCc2cc(OCCN3CCC4(CC3)C(=O)Nc3ccc(Cl)cc34)ccc21` [Compound 97, 5-chloro-1′-(2-{[2-oxo-1-(propan-2-yl)-1,2,3,4-tetrahydroquinolin-6-yl]oxy}ethyl)-1,2-dihydrospiro[indole-3,4′-piperidin]-2-one], the AC50 amounted to 823 nM.
